Consider five molecules from ChEMBL document CHEMBL4138268, “Discovery of Spiro Oxazolidinediones as Selective, Orally Bioavailable Inhibitors of p300/CBP Histone Acetyltransferases” (ACS Med Chem Lett, 2018).

For data set [1], the target named is CREB-binding protein/Histone acetyltransferase p300 (Homo sapiens, UniProt Q09472+Q92793). Briefly: Inhibition of p300/CBP (unknown origin) using biotinylated synthetic Histone H4 Peptide as substrate pretreated for 30 mins followed by substrate addition measured after 1 hr by radiometric scintillation proximity assay. The data set is classed as protein assay.

Data set [2] in a line: Permeability of the compound by PAMPA. The data set is classed as ADME.
Data set [3] can be described thus: Clearance in mouse microsomes. In kind it is ADME, Microsome.
Data set [4] is described as follows: Unbound fraction in human microsomes. In kind it is ADME, Microsome.
Data set [5] in a line: Unbound intrinsic clearance in mouse microsomes. In kind it is ADME, Microsome.
For data set [6], the system named is Mus musculus. As to the kind of experiment: Plasma clearance in mouse at 1 mg/kg, iv. The data set is classed as ADME, organism-based. The following applies: in vivo.
Data set [7] is described as follows: Protein binding in mouse plasma. In kind it is ADME, cell-free.
Data set [8] is filed under the species Mus musculus. Briefly: Unbound plasma clearance in mouse. In kind it is ADME, organism-based. The note with it: in vivo.
A short description of data set [9]: Oral bioavailability in mouse. In kind it is ADME, organism-based. The note with it: in vivo.
Data set [10] is described as follows: AUC in mouse at 10 mg/kg, po. The data set is classed as ADME, organism-based. The note with it: in vivo.

Each structure is given as a SMILES string.

What is called IC50 is the concentration at which inhibition is half-maximal. For `CC(C1CC1)N(Cc1ccccc1)C(=O)CN1C(=O)NC(Cc2c[nH]c3ccccc23)C1=O` (stereo not drawn), the IC50 in [1] worked out at 5.1 µM.
`CNC(=O)Nc1ccc2c(c1)CC[C@]21NC(=O)N(CC(=O)N(Cc2ccccc2)[C@@H](C)C2CC2)C1=O`: the permeability in data set [2] is 0.47 ×10⁻⁶ cm/s.
Consider `C[C@@H](C1CC1)N(Cc1ccccc1)C(=O)CN1C(=O)NC(c2ccccc2)C1=O` (stereo partly drawn), for which the IC50 in [1] was determined as 7.6 µM.
Broadly, the CLint scaled is a measure of how fast metabolising enzymes remove a compound, apart from limits set by blood flow. High values mean rapid turnover, low ones slow turnover. As a reminder, the bioavailability is dose-corrected exposure relative to a reference, in per cent. As a reminder, the AUC is the area under the concentration-time curve, a measure of exposure. A low value points to low exposure. Regarding `CNC(=O)Nc1ccc2c(c1)CC[C@@]21OC(=O)N(CC(=O)N(Cc2ccccc2)[C@@H](C)C2CC2)C1=O`, in data set [2], the permeability came out at 2.35 ×10⁻⁶ cm/s. The molecule also gave a CLint scaled in data set [3] of 1780 mL/min/kg. In data set [4], the Fu stood at 0.48. The CL free came to 3130 mL/min/kg in [5] and 3100 mL/min/kg in the data set filed under Mus musculus [8]. In the data set with Mus musculus [6], this molecule displayed a CL of 27 mL/min/kg. Besides, in data set [7], the PPB was determined as 99.1%. Moreover, in data set [9], the bioavailability amounted to 40%. Also, the AUC in data set [10] was 2500 ng·h/mL.
Turning to `Cc1ccccc1C1NC(=O)N(CC(=O)N(Cc2ccccc2)[C@@H](C)C2CC2)C1=O` (stereo partly drawn), the IC50 in [1] amounted to 2.7 µM.
